Source: patent US10197583B2, “Hydroxycholesterol immunoassay” (ENZO LIFE SCIENCES, INC. C/O ENZO BIOCHEM, INC., priority 2010, dated 2019)

Assays:
[1] = tested on: rabbit antisera to 24S-hydroxycholesterol (Day 77 bleed, rabbit #72); test: Cross-reactivity in competitive 24HC enzyme immunoassay, antiserum of rabbit #72; assay type: binding; details: for % Cross reactivity: Table 2, antiserum Day 77 bleed, rabbit #72, relative to 24HC; for Bleed #72 % Cross reactivity: Table 3, repeat of the rabbit #72 antisera
Experimental: (§1) 24HC Enzyme Immunoassay Protocol
(§2) 1. Known concentrations of 24HC were prepared in 100 mM phosphate, 150 mM NaCl, 1% BSA, pH 7.2 assay buffer containing biotinylated […] (described above) and added to wells of a 96 well microtiter plate that were coated with a goat anti-rabbit IgG antibody. Rabbit polyclonal antibody to 24HC was diluted to a limiting concentration in 100 mM Tris, 150 mM NaCl, 1% BSA buffer and 100 μL was added to each well. The plate was incubated at room temperature for 1 hour with orbital shaking. During this incubation the anti-24HC antibody binds to the goat anti-rabbit IgG antibody on the plate. Also, the 24HC standard competes with the biotinylated 24HC for anti-24HC antibody binding sites. Thus, with more 24HC standard, less biotinylated 24HC binds to the antibody binding sites on the plate.
(§3) 2. Following this incubation, the plate was washed 4 times with 300 μL of 50 mM Tris, 100 mM NaCl, 0.05% Tween-20 buffer. After washing, bound 24HC or bound biotinylated 24HC is bound to the binding sites on the anti-24HC antibodies.
(§4) 3. Streptavidin conjugated to HRP (200 μL), diluted in 100 mM phosphate, 150 mM NaCl, 1% BSA, pH 7.2 assay buffer, was then added to each well to allow detection of the biotinylated 24HC. The plate was then incubated at room temperature for 30 minutes.
(§5) 4. The plate was then washed 4 times with 300 μL of 50 mM Tris, 100 mM NaCl, 0.05% Tween-20 buffer to remove excess streptavidin-HRP conjugate. TMB substrate solution (200 μL) is added to each well. The plates were incubated at room temperature for 30 min.
(§6) 5. After color development, 50 μL of 1N HCl stop solution is added to each well to stop the substrate reaction. The resulting yellow color was read at 450 nm. […]. The intensity of yellow color is inversely proportional to the concentration of 24HC that was added to the well.
The multiple regression line shown therein has an R^2 of 0.996. The detectable range for 24HC for this assay is as shown is 1.56-100 ng/mL. The total assay time is 2 h.
Cross-reactivity of the antisera tested above (Day 77 bleed, rabbit #72) to the following structurally similar molecules was determined:
(§7) Cross-reactivities of antisera taken from another rabbit at Day 77 (rabbit #71), subjected to the same immunization protocol, as well as a repeat of the rabbit #72 antisera, were also determined.

[2] = tested on: rabbit antisera to 24S-hydroxycholesterol (Day 77, rabbit #71); test: Cross-reactivity in competitive 24HC enzyme immunoassay, antiserum of rabbit #71; assay type: binding; details: Table 3; antiserum Day 77, rabbit #71
Experimental: as §1, §2, §3, §4, §5, §6, §7

CC(C)CC[C@@H](O)[C@@H](C)[C@H]1CC[C@H]2[C@@H]3CC=C4CC(O)CC[C@]4(C)[C@H]3CC[C@]12C (stereo in doubt) [22-Hydroxycholesterol]
% Cross reactivity [1]: 0.15%
Bleed #72 % Cross reactivity [1]: 0.11%
Bleed #71 % Cross reactivity [2]: 0.020%

C[C@H](CCCC(C)(C)O)[C@H]1CC[C@H]2[C@@H]3CC=C4C[C@@H](O)CC[C@]4(C)[C@H]3CC[C@]12C [25-Hydroxycholesterol]
Bleed #72 % Cross reactivity [1]: 0.725%
Bleed #71 % Cross reactivity [2]: 0.19%

C[C@@H](CO)CCC[C@@H](C)[C@H]1CC[C@H]2[C@@H]3CC=C4C[C@@H](O)CC[C@]4(C)[C@H]3CC[C@]12C [27-Hydroxycholesterol]
Bleed #72 % Cross reactivity [1]: <0.001%
Bleed #71 % Cross reactivity [2]: 0.022%

CC(C)CCC[C@@H](C)[C@H]1CC[C@H]2[C@@H]3CC=C4C[C@@H](O)CC[C@]4(C)[C@H]3CC[C@]12C [Cholesterol]
% Cross reactivity [1]: <0.001%
Bleed #72 % Cross reactivity [1]: 0.003%
Bleed #71 % Cross reactivity [2]: 0.002%

C[C@]12CC[C@H](O)CC1=CC[C@@H]1[C@@H]2CC[C@]2(C)C(=O)CC[C@@H]12 [DHEA]
% Cross reactivity [1]: 0.05%
Bleed #72 % Cross reactivity [1]: 0.018%
Bleed #71 % Cross reactivity [2]: 0.015%
